Assay results taken from article PMC6152084, “Synthesis of New Hydrazone Derivatives for MAO Enzymes Inhibitory Activity” (Molecules : A Journal of Synthetic Chemistry and Natural …, 2017).
Marks after values point to notes of the source that are not given here.

How the values were obtained:
hMAO-A [1] = target: T1, hMAO-A (Homo sapiens, UniProt P21397); test: Enzyme kinetics (Lineweaver-Burk plots, tyramine substrate); type: biochemical; settings: for type of inhibition of hMAO-A: Lineweaver-Burk plot
T1 construct: purchased Sigma-Aldrich (Steinheim, Germany)
T1 sequence (P21397 1-527): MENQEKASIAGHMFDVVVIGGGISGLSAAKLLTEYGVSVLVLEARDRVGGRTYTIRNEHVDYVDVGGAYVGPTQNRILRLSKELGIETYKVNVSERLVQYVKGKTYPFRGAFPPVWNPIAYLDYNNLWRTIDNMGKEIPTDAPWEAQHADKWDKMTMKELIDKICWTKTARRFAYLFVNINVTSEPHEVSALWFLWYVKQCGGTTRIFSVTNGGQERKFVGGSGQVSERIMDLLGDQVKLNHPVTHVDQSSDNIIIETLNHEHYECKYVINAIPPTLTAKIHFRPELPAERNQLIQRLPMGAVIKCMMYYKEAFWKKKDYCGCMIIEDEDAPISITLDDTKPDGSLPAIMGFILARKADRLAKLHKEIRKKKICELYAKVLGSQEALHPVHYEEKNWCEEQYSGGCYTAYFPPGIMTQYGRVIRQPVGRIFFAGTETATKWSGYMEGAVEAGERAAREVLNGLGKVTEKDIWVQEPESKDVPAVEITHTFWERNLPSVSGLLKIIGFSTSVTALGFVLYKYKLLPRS
Description: The mechanism of hMAO-A inhibition was investigated by enzyme kinetics, following a similar procedure to the MAO inhibition assay. The linear Lineweaver-Burk graphics were used to estimate the type of inhibition. […] In each case, the initial velocity measurements were gained at different substrate (tyramine) concentrations ranging from 20 μM to 0.625 μM. The Ki (intercept on the x-axis) values of compounds 2a and 2b were determined from the secondary plot of the Km/Vmax (slope) versus varying concentrations.
Based on the type of interaction with the enzyme, inhibitor binding can be classified as either reversible or irreversible. The type of inhibition can be determined by the Lineweaver-Burk plot as mixed-type, uncompetitive, competitive, or noncompetitive, which are the indicators of a reversible inhibitor [23]. It is known that in the uncompetitive type inhibition a graphic, including the parallel lines without any cross, is observed. If the lines cross neither the x- nor the y-axis at the same point the inhibition type is called mixed-type. Noncompetitive inhibition is seen if the plots intersect on the x-axis. There are different slopes and intercepts on the y-axis. On the other hand, competitive inhibition gives the opposite situation. This type of inhibition has plots with the same intercept on the y-axis but there are diverse slopes and intercepts on the x-axis, which are observed in Figure 2 and Figure 3.
The same materials were used as in the MAO inhibition assay. […] The solutions of inhibitor (20 μL/well) and enzyme were added to the flat black bottom 96-well micro test plate, and incubated at 37 °C for 30 min. After incubation period, the working solution, including various concentrations (20, 10, 5, 2.5, 1.25, and 0.625 μM) of tyramine (100 μL/well) was added. The increase of the fluorescence (Ex/Em = 535/587 nm) was recorded for 30 min. A parallel experiment was carried out without inhibitor. All processes were assayed in quadruplicate. The results were analyzed as Lineweaver-Burk plots using Microsoft Office Excel 2013. The Km/Vmax (slope) values of the Lineweaver-Burk plots were replotted versus the inhibitor concentration, and the Ki values were determined from the x-axis intercept as −Ki.

[2] = test system: Salmonella typhimurium TA100; test: Ames MPF genotoxicity test, TA100; type: cell-based; settings: for mutagenicity classification against TA100: with/without metabolic activation (S9)
Description: An Ames MPF assay was performed to investigate the genotoxicity of the compounds 2a and 2b.
The genotoxicity of the compounds was determined by Ames assay as previously described using the Ames MPF 98/100 mutagenicity test sample kit (Xenometrix AG, Allschwil, Switzerland). This test was performed with Salmonella typhimurium strains TA98 (frameshift mutations) and TA100 (base-pair substitutions). Compounds was prepared in six different concentrations (5, 2.5, 1.25, 0.625, 0.3125, 0.156 mg/mL) which was between […] and 5000 µg/mL according to the previous guidelines in DMSO. In order to detect mutagenic potential, test performed with and without Aroclor™-1254 induced male Sprague-Dawley rat liver microsomal enzyme (S9) mix (Xenometrix AG). While the positive control for TA 98 without S9 mix was 2-nitrofluorene (2 μg/mL), 1 μg/mL of 2-aminoanthracene was positive control with S9 against TA 98. For TA100, 4-nitroquinoline N-oxide (0.1 μg/mL) was positive control without S9 mix and 2.5 μg/mL of 2-aminoanthracene was positive control. 4% DMSO solution was the solvent control. At the end of the experiment, revertant bacteria decreased the pH of solution and indicator medium colour was changed to yellow. Yellow wells were counted as positive and compared with the negative control. Fold induction over the negative control and fold induction over the baseline were calculated. Fold induction over the negative control is the ratio of the mean number of positive wells for the dose concentration divided by the mean number of positive wells for the zero dose (negative) control. Fold induction over the baseline is the ratio of the mean number of positive wells for the dose concentration divided by zero dose baseline. The zero dose baseline is obtained by adding one standard deviation to the mean number of positive wells of the zero dose control. Mutagenity was determined according to the criteria from previous studies. For a baseline value ≤ 3, significant increases between 2 and 3-fold the baseline were classified as weak mutagen, increases ≥ 3-fold the baseline were classified as mutagen. For a baseline was > 3, significant increases between 1.5 and 2.5-fold the baseline were classified as weak mutagen, and increases ≥ 2.5-fold the baseline, were classified as mutagen. In principle, for a mutagenic compound, at least two adjacent doses with significant increase or a significant increase at the highest dose level should be observed. All doses were compared according to Student’s t-test at p < 0.05 as statistically.

hMAO-A [3] = target: T1, hMAO-A; test: MAO-A inhibition assay (in vitro fluorometric Amplex Red method); type: biochemical; settings: for inhibition at 1000 µM: 10^−3 M; for inhibition at 100 µM: 10^−4 M; for inhibition at 10 µM: 10^−5 M; for inhibition at 1 µM: 10^−6 M; for inhibition at 0.1 µM: 10^−7 M; for inhibition at 0.01 µM: 10^−8 M; for inhibition at 0.001 µM: 10^−9 M; for inhibition against hMAO-A in the initial assay: first step, 10^−3 and 10^−4 M; for selectivity towards hMAO-A: versus hMAO-B

SMILES | Vmax value of the competitive inhibition (hMAO-A [1]) [nmol/min/mg protein] | type of inhibition of hMAO-A (hMAO-A [1]) | Revertants Fold Increase (Over Baseline) ([2]; TA 100, S9+, 0.156 mg/mL) | Revertants Fold Increase (Over Baseline) ([2]; TA 100, S9+, 0.3125 mg/mL) | Revertants Fold Increase (Over Baseline) ([2]; TA 100, S9+, 0.625 mg/mL) | Revertants Fold Increase (Over Baseline) ([2]; TA 100, S9+, 1.25 mg/mL) | Revertants Fold Increase (Over Baseline) ([2]; TA 100, S9+, 2.5 mg/mL) | Revertants Fold Increase (Over Baseline) ([2]; TA 100, S9+, 5 mg/mL) | Revertants Fold Increase (Over Baseline) ([2]; TA 100, S9−, 0.156 mg/mL) | Revertants Fold Increase (Over Baseline) ([2]; TA 100, S9−, 0.3125 mg/mL) | Revertants Fold Increase (Over Baseline) ([2]; TA 100, S9−, 0.625 mg/mL) | Revertants Fold Increase (Over Baseline) ([2]; TA 100, S9−, 1.25 mg/mL) | Revertants Fold Increase (Over Baseline) ([2]; TA 100, S9−, 2.5 mg/mL) | Revertants Fold Increase (Over Baseline) ([2]; TA 100, S9−, 5 mg/mL) | mutagenicity classification against TA100 [2] | IC50 (hMAO-A [3]) [nM] | inhibition at 1000 µM (hMAO-A [3]) [%] | inhibition at 100 µM (hMAO-A [3]) [%] | inhibition at 10 µM (hMAO-A [3]) [%] | inhibition at 1 µM (hMAO-A [3]) [%] | also measured
CC1CCCCN1c1ccc(/C=N/Nc2ccccc2)cc1 (stereo not drawn) [Compound 2a, 1-(4-(2-Methypiperidin-1-yl)benzylidene)-2-phenylhydrazine] | 85.517 ± 2.332 | reversible and competitive | 0.99 | 0.69 | 0.91 | 0.95 | 0.39 | 0.82 | 0.44 | 0.63 | 0.24 * | 0.19 * | 0.05 * | 0.00 * | not genotoxic | 342 ± 15 | 88.2 ± 0.821 | 84.29 ± 0.641 | 75.1 ± 0.693 | 50.8 ± 0.582 | Ki (hMAO-A [1]; secondary plot of Km/Vmax (slope) versus inhibitor concentration, read-out: Ki for the inhibition of hMAO-A): 188 nM; Fold-inductions over baseline ([2]; TA100, absence and presence of S9, each concentration): less than 1.5; inhibition at 0.1 µM (hMAO-A [3]): 34.7 ± 0.378%; inhibition at 0.01 µM (hMAO-A [3]): 30.5 ± 0.542%; inhibition at 0.001 µM (hMAO-A [3]): 25.5 ± 0.517%; inhibition against hMAO-A in the initial assay (hMAO-A [3]): more than 50%; selectivity towards hMAO-A (hMAO-A [3]): selective inhibition potency towards hMAO-A
CN1CCN(c2ccc(C=NNc3ccccc3)cc2)CC1 [Compound 2b, 1-(4-(4-Methylpiperazine-1-yl)benzylidene)-2-phenylhydrazine] | 79.360 ± 5.704 | reversible and competitive | 1.46 * | 1.40 | 1.46 | 0.79 | 0.12 * | 0.00 * | 0.40 | 0.17 * | 0.06 * | 0.03 * | 0.00 * | 0.00 * | non-mutagenic | 28 ± 1 | 93.53 ± 0.412 | 88.86 ± 0.214 | 80.42 ± 0.47 | 66.22 ± 0.54 | Fold-inductions over baseline ([2]; TA100 with S9, each concentration): ≤ 1.5; inhibition at 0.1 µM (hMAO-A [3]): 48.2 ± 0.631%; inhibition at 0.01 µM (hMAO-A [3]): 45.3 ± 0.48%; inhibition at 0.001 µM (hMAO-A [3]): 38.15 ± 0.367%; inhibition against hMAO-A in the initial assay (hMAO-A [3]): more than 50%; fold more active than moclobemide against hMAO-A (hMAO-A [3]; ratio of IC50 values): 216 fold; selectivity towards hMAO-A (hMAO-A [3]): selective inhibition potency towards hMAO-A
